Earlier results as cited in patent US10640746B2, “Synthetic methylotrophs” (UNIVERSITY OF DELAWARE, priority 2016, dated 2020).

Key:
Conditions in all cases: in vitro
[1] = tested on: Corynebacterium glutamicum R (Cgl R) alcohol dehydrogenase A (Cgl AdhA, CgAdhA; GenBank BAF55711.1; SEQ ID NO: 1)
[2] = tested on: Bacillus stearothermophilus 2334 (Bst) methanol dehydrogenase (Bst Mdh, BsMdh)
[3] = tested on: Bacillus methanolicus MGA3 (Bme) methanol dehydrogenase 3 (Bme Mdh3, BmMdh3)

| SMILES | Km [1] | Vmax [1] | Km [2] | Vmax [3] | Vmax [2] |
| --- | --- | --- | --- | --- | --- |
| CCO [EtOH, ethanol] | 6.8 mM | 7.8 µmol/min/mg | 0.08 mM | 2 µmol/min/mg | – |
| CO [MeOH, methanol] | 3 mM | 0.7 µmol/min/mg | 20 mM | 0.07 µmol/min/mg | 2.1 µmol/min/mg |
| CCCCO [n-BuOH, n-butanol] | 35 mM | 8.9 µmol/min/mg | 0.01 mM | 2.3 µmol/min/mg | – |
| CCCO [n-PrOH, propanol] | 7.5 mM | 7.7 µmol/min/mg | 0.02 mM | 3.5 µmol/min/mg | – |
